One may read the Kd as the constant that tells how readily two partners part at equilibrium. Usually IC50 stands for the point on the concentration scale where inhibition reaches its midpoint.

Experiment [1] has as its target T1, human soluble TNFR1 (sTNFR1) (Homo sapiens, UniProt P19438).
T1 construct: made in house; host or cells: Sf21 (baculovirus)
T1 sequence (P19438 with tags, fused parts or gaps): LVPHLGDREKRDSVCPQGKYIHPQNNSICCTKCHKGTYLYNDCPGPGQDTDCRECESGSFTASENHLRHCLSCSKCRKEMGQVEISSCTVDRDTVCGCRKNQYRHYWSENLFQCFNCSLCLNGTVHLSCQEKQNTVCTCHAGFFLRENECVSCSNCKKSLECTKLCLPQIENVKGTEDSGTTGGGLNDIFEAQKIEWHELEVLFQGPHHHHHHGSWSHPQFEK
As to the kind of experiment: Human sTNFR1-peptide displacement assay (LanthaScreen Eu TR-FRET binding assay). How it is done:
A. Procedure for Human sTNFR1-Peptide Displacement Assay
The affinity was determined using LanthaScreen Eu-based time-resolved fluorescence resonance energy transfer (TR-FRET)-based binding assay.
A TR-FRET assay measuring the displacement of biotinylated peptide SEQ ID NO. 1 from human soluble TNFR1 (sTNFR1) in a pre-formed complex by a macrocyclic peptide yields the affinity (Kd^app) of the cyclic peptide for sTNFR1. The reagents for the assay include: the C′-terminally 6His-tagged sTNFR1 (residues 1-211) protein purified from a Sf21 baculovirus expression system, the biotin-tagged B0372 peptide described in section “Preparation of Final Compounds”, part E, the LanthaScreen™ anti-His Tag Europium donor (Life Technologies Corporation (San Diego, CA), cat. #PV5597), and a streptavidin-conjugate Alexa Fluor™ 647 acceptor (Invitrogen (Waltham, MA), cat. #S32357). Time-resolved TR-FRET is achieved when sTNFR1 is bound to biotinylated peptide SEQ ID NO. 1 through coupling of the donor and acceptor FRET pair.
100 nM biotinylated peptide SEQ ID NO. […] 100 nM biotinylated peptide SEQ ID NO. 1 was chosen as it reflects the ˜Kd for this complex. After 30 min at ambient temperature, each test peptide (2 mM stock in DMSO) is titrated in a 20 point, ˜3-fold discrete dose-response using an acoustic-dispense liquid handler. Specifically, 80 nL of peptide/DMSO is transferred into a ProxiPlate-384 Plus 384-well assay plate (PerkinElmer, cat. #6008289). To this plate, 8 μL of the previously formed sTNFR 1-biotinylated peptide SEQ ID NO. 1 complex is added and allowed to reach binding equilibrium with the test peptide at ambient temperature for 90 min.
The TR-FRET signal is measured with the following EnVision® settings: excitation laser at 337 nm; emission1=615 nm, emission2=665 nm, LANCE/DELFIA dichroic mirror, delay time=[…]. The signal of each well is determined as the ratio of the emission at 665 nm to that at 615 nm. Percent displacement is determined by normalization to control wells containing DMSO (0%) or a saturating concentration of a displaceable peptide (100%). The %-effect as a function of peptide concentration is fit to a five-parameter logistic fit based on the Morrison equation to account for tight binding kinetics.
(In TR-FRET formats the signal depends on donor and acceptor labels being close together.)

Experiment [2] concerns the target T2, TNFα-induced NF-κB signal transduction pathway (TNFR1 signaling) in THP-1 cells (Homo sapiens, UniProt P19438).
T2 sequence (P19438 30-455): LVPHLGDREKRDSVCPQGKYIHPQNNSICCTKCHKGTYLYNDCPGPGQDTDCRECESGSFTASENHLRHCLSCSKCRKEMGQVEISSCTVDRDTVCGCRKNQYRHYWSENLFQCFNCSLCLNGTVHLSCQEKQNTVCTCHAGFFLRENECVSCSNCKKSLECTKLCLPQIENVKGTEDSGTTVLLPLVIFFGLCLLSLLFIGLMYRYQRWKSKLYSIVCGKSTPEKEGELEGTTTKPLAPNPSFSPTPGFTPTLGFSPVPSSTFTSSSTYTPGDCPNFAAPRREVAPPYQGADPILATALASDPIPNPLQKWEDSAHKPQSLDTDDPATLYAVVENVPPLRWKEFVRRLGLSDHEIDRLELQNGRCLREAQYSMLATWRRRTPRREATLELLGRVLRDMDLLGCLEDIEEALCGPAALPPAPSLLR
The experiment is described as follows: THP-1 Lucia NF-κB reporter cell assay, inhibition of TNFα-induced NF-κB signaling. Format: cell-based. To be noted: THP-1 NF-κB Lucia reporter cells, 10 ng/mL TNFα, 16-18 h, secreted luciferase; read-out: THP-1 IC50. In outline: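 Macrocyclic peptides were preincubated 1 h at 37 °C with THP-1 NF-κB-Lucia reporter cells (20,000 cells/well) in antibiotic-free RPMI 1640/10% FBS, then stimulated with 10 ng/mL human TNFα overnight (16-18 h). Secreted luciferase in supernatant was read by luminescence; IC50 from 4-parameter logistic fits.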

Each structure is given as a SMILES string. Numbered stars: 1 amine (or outer) side, 2 acyl side, 3 side chain; on linkers, the order of the positions; unused ones are H or OH. Square brackets hold non-standard residues; d marks the D form. Peptide text beside a SMILES is read from it. Trp(βS-Me,7-OMe) = COc1cccc2c([C@H](C)[C@H](N)C(=O)O)c[nH]c12; X51 = CCC[C@@H](c1c[nH]c2ccccc12)[C@H](N[*:1])C(=O)[*:2]; Trp(7-CN) = N#Cc1cccc2c(C[C@H](N)C(=O)O)c[nH]c12; Trp(7-Cl) = N[C@@H](Cc1c[nH]c2c(Cl)cccc12)C(=O)O; X55 = O=C([C@H]1C[C@H](c2nn[nH]n2)CN1[*:1])[*:2]; Phe(4-CONH2) = NC(=O)c1ccc(C[C@H](N)C(=O)O)cc1; Phe(4-COOH) = N[C@@H](Cc1ccc(C(=O)O)cc1)C(=O)O; Asn(3S-OH) = NC(=O)[C@@H](O)[C@H](N)C(=O)O; X47 = NC[C@H]1C[C@H](C(=O)[*:2])N([*:1])C1; Pip(5R-OH) = O=C(O)[C@@H]1CC[C@@H](O)CN1; X1 = O=C([C@@H]1CC[C@H](N[*:1])C1)[*:2]; 4Pal = N[C@@H](Cc1ccncc1)C(=O)O; dHyp = O=C(O)[C@H]1C[C@H](O)CN1; αMeS = C[C@](N)(CO)C(=O)O; Nle = CCCC[C@H](N)C(=O)O; Sar = CNCC(=O)O

Consider `CCCC[C@@H]1NC(=O)[C@@H]2CC[C@@H](C2)NC(=O)[C@H]([C@@H](C)c2c[nH]c3c(OC)cccc23)NC(=O)CN(C)C(=O)[C@H](Cc2ccc(C(=O)O)cc2)NC(=O)[C@H](Cc2ccc(C(N)=O)cc2)NC(=O)[C@](C)(CO)NC(=O)[C@H](Cc2c[nH]c3c(Cl)cccc23)NC(=O)[C@H](Cc2ccc(C(=O)O)cc2)NC(=O)[C@H](CC(N)=O)NC(=O)[C@H]2C[C@H](c3nn[nH]n3)CN2C(=O)[C@H](Cc2c[nH]c3ccccc23)NC(=O)[C@@H]2CC[C@@H](O)CN2C(=O)[C@H](Cc2ccncc2)NC1=O` [SEQ ID NO. 11] (cyclo([4Pal][Pip(5R-OH)]W[X55]N[Phe(4-COOH)][Trp(7-Cl)][αMeS][Phe(4-CONH2)][Phe(4-COOH)][Sar][Trp(βS-Me,7-OMe)][X1][Nle])), for which binding in experiment [1] was characterised by a dissociation constant (Kd) of 0.07 nM. For the same molecule, in experiment [2], the IC50 was determined as 0.7 nM.

As to `CCCC[C@@H]1NC(=O)[C@@H]2CC[C@@H](C2)NC(=O)[C@H]([C@@H](C)c2c[nH]c3c(OC)cccc23)NC(=O)CN(C)C(=O)[C@H](Cc2ccc(C(=O)O)cc2)NC(=O)[C@H](Cc2ccc(C(N)=O)cc2)NC(=O)[C@](C)(CO)NC(=O)[C@H](Cc2c[nH]c3c(Cl)cccc23)NC(=O)[C@H](Cc2ccc(C(=O)O)cc2)NC(=O)[C@H](CC(N)=O)NC(=O)[C@H]2C[C@H](CN)CN2C(=O)[C@H](Cc2c[nH]c3ccccc23)NC(=O)[C@@H]2CC[C@@H](O)CN2C(=O)[C@H](Cc2ccncc2)NC1=O` [SEQ ID NO. 15] (cyclo([4Pal][Pip(5R-OH)]W[X47]N[Phe(4-COOH)][Trp(7-Cl)][αMeS][Phe(4-CONH2)][Phe(4-COOH)][Sar][Trp(βS-Me,7-OMe)][X1][Nle])), the affinity in experiment [1], expressed as Kd, was 0.1 nM. The IC50 in experiment [2] is 0.5 nM.

In the case of `CCCC[C@@H]1NC(=O)[C@@H]2CC[C@@H](C2)NC(=O)[C@H]([C@@H](C)c2c[nH]c3c(OC)cccc23)NC(=O)CN(C)C(=O)[C@H](Cc2ccc(C(=O)O)cc2)NC(=O)[C@H](Cc2ccc(C(N)=O)cc2)NC(=O)[C@](C)(CO)NC(=O)[C@H](Cc2c[nH]c3c(C#N)cccc23)NC(=O)[C@H](Cc2ccncc2)NC(=O)[C@H]([C@H](O)C(N)=O)NC(=O)[C@H]2C[C@H](O)CN2C(=O)[C@H](Cc2c[nH]c3ccccc23)NC(=O)[C@@H]2CC[C@@H](O)CN2C(=O)[C@H](Cc2ccncc2)NC1=O` [SEQ ID NO. 25] (cyclo([4Pal][Trp(7-CN)][αMeS][Phe(4-CONH2)][Phe(4-COOH)][Sar][Trp(βS-Me,7-OMe)][X1][Nle][4Pal][Pip(5R-OH)]W[dHyp][Asn(3S-OH)])), the Kd in experiment [1] was determined as 0.04 nM. Also, the IC50 in experiment [2] was 0.8 nM.

In experiment [1], `CCCC[C@@H]1NC(=O)[C@@H]2CC[C@@H](C2)NC(=O)[C@H]([C@@H](CCC)c2c[nH]c3ccccc23)NC(=O)CN(C)C(=O)[C@H](Cc2ccc(C(=O)O)cc2)NC(=O)[C@H](Cc2ccc(C(N)=O)cc2)NC(=O)[C@](C)(CO)NC(=O)[C@H](Cc2c[nH]c3c(Cl)cccc23)NC(=O)[C@H](Cc2ccc(C(=O)O)cc2)NC(=O)[C@H](CC(N)=O)NC(=O)[C@H]2C[C@H](O)CN2C(=O)[C@H](Cc2c[nH]c3ccccc23)NC(=O)[C@@H]2CC[C@@H](O)CN2C(=O)[C@H](Cc2ccncc2)NC1=O` [SEQ ID NO. 27] (cyclo([4Pal][Pip(5R-OH)]W[dHyp]N[Phe(4-COOH)][Trp(7-Cl)][αMeS][Phe(4-CONH2)][Phe(4-COOH)][Sar][X51][X1][Nle])) displayed a Kd of 0.1 nM. In experiment [2], the IC50 came to 0.5 nM.
